# Laboratory results from PMC9706657 (2022).
# Tests used:
# Assay in all cases: ITC
# Settings in all cases: Na+ 100 mM (NaCl), Mg2+ 5 mM (MgCl2); 5 mM MES, pH 5.5; aptamer on Au nanoparticle (20 µM aptananozyme in cell)
# [1] = test system: aptananozyme II ((2)-modified pA-AuNPs) (DNA, aptamer) GTAACAACAGTCAAAAAAAAAAAAAAAAAAAAGACTGTTGTTACCGACGCCAGTTTGAAGGTTCGTTCGCAGGTGTGGAGTGACGTCG
# [2] = test system: aptananozyme IV ((4)-modified pA-AuNPs) (DNA, aptamer) GTAACAACAGTCAAAAAAAAAAAAAAAAAAAAGACTGTTGTTACTGTATGTACGACGCCAGTTTGAAGGTTCGTTCGCAGGTGTGGAGTGACGTCG
# [3] = test system: aptananozyme I ((1)-modified pA-AuNPs) (DNA, aptamer) CGACGCCAGTTTGAAGGTTCGTTCGCAGGTGTGGAGTGACGTCGGTAACAACAGTCAAAAAAAAAAAAAAAAAAAAGACTGTTGTTAC
# [4] = test system: aptananozyme III ((3)-modified pA-AuNPs) (DNA, aptamer) GTAACAACAGTCAAAAAAAAAAAAAAAAAAAAGACTGTTGTTACTGTACGACGCCAGTTTGAAGGTTCGTTCGCAGGTGTGGAGTGACGTCG
# [5] = test system: aptananozyme V ((5)-modified pA-AuNPs) (DNA, aptamer) GTAACAACAGTCAAAAAAAAAAAAAAAAAAAAGACTGTTGTTACTGTATGTATGTACGACGCCAGTTTGAAGGTTCGTTCGCAGGTGTGGAGTGACGTCG
Kd [1] [nM],Kd [2] [nM],Kd [3] [nM],Kd [4] [nM],Kd [5] [nM],SMILES
1200 ± 60,760 ± 30,1650 ± 30,950 ± 40,930 ± 50,NCCc1ccc(O)c(O)c1
–,4200,–,–,–,N[C@@H](Cc1ccc(O)c(O)c1)C(=O)O
–,11300,–,–,–,N[C@H](Cc1ccc(O)c(O)c1)C(=O)O
